From patent US11541029B2, “High penetration compositions and their applications” (Techfields Pharma Co., Ltd., priority 2008, dated 2023) come the findings set out here.

The subject of data set [1] is SLAC:NOD-IDDM, type 1 diabetes. Briefly: Anti-diabetes (type I) activity of HPCs of NSAIAs. Type of data set: in vivo, mice. The following applies: for blood glucose, Baseline: equal to 20 mg/kg of NSAIAs transdermally twice per day for 7 weeks; for blood glucose, Average: fourth week to seventh week, no fasting, equal to 20 mg/kg of NSAIAs transdermally twice per day. From the text: 10% aqueous solution of diethylaminoethyl acetylsalicylate.acetylsalicylic acid salt (P-1, […]); 4-acetamidophenyl salicylyldimethylaminobutyrate. HCl (P-6), diethylaminoethyl 5-(2,4-difluorophenyl)acetylsalicylate.5-(2,4-difluorophenyl)acetylsalicylic acid salt (P-8), diethylaminoethyl salicylsalicylate.AcOH(P-9), diethylaminoethyl 5-acetamido-acetylsalicylate. HCl (P-58), diethylaminoethyl 2-(ρ-isobutylphenyl) propionate.citric acid (P-59), diethylaminoethyl acetylsalicylsalicylate. acetylsalicylsalicylsalicylic acid salt (P-60) (equal to of 20 mg/kg of NSAIAs) were administered transdermally to the shaved back (about 1.5 cm^2) of mice twice per day (at 8 am and 5 pm) for 7 weeks.
The blood glucose levels were measured once every 3 days at 4:30 pm (no fasting) from the fourth week to the seventh week as shown in Table 11.

The test system of a further data set is SLAC/DB/DB obese mice. Description: Blood glucose and blood lipid levels in DB/DB mice. Type of data set: in vivo. The conditions noted are these: 30 mg/kg transdermally once per day. As for the experimental part:
HPCs in the present disclosure lowered blood glucose levels and blood lipid levels in mice models (SLAC/DB/DB, obese mice, n=7). 30 mg/kg of 8% diethylaminoethyl acetylsalicylate.HCl salt (P-1, in 25% ethanol); 4-acetamidophenyl salicylyldimethylaminobutyrate.HCl (P-6, in 25% ethanol), diethylaminoethyl 5-(2,4-difluorophenyl)acetylsalicylate.5-(2,4-difluorophenyl)acetylsalicylic acid salt (P-8, in 25% ethanol), diethylaminoethyl salicylsalicylate.HCl salt (P-9, in 25% ethanol), diethylaminoethyl salicylate.AcOH(P-10, in 25% ethanol), diethylaminoethyl 5-acetamido-acetylsalicylate.HCl(P-58, in 25% ethanol), diethylaminoethyl acetylsalicylsalicylate.HCl salt (P-59, in 25% ethanol), diethylaminoethyl acetylsalicylsalicylsalicylate.HCl salt (P-60, in 25% ethanol) were administered transdermally to the backs (4 cm^2,fur was shaved) of DB/DB mice(SLAC/DB/DB, 10-12 weeks old) once per day (at 8 am) for 5 weeks. The blood glucose levels were measured once per week and blood lipid levels were measured once every other week.

In a further data set the test system is normal SD rats (SLAC/SD). Description: Blood glucose in normal SD rats treated with HPCs of NSAIAs. Type of data set: in vivo. The following applies: 30 mg/kg transdermally once per day, no fasting. On the procedure:
(§1) A HPC in the present disclosure lowered blood glucose levels in rat models (SLAC/GK, type 2 diabetes, n=7). 30 mg/kg of 8% diethylaminoethyl acetylsalicylate.HCl salt (P-1, in 25% ethanol); 4-acetamidophenyl salicylyldimethylaminobutyrate.HCl (P-6, in 25% ethanol), diethylaminoethyl 5-(2,4-difluorophenyl)acetylsalicylate.5-(2,4-difluorophenyl)acetylsalicylic acid salt (P-8, in 25% ethanol), diethylaminoethyl salicylsalicylate.HCl salt (P-9, in 25% ethanol), diethylaminoethyl salicylate.AcOH(P-10, in 25% ethanol), diethylaminoethyl 5-acetamido-acetylsalicylate.HCl(P-58, in 25% ethanol), diethylaminoethyl acetylsalicylsalicylate. HCl salt (P-59, in 25% ethanol), diethylaminoethyl acetylsalicylsalicylsalicylate. HCl salt (P-60, in 25% ethanol) were administered transdermally to the backs (6 cm^2, fur was shaved) of GK rats (SLAC/GK, 14-16 weeks old) and normal SD rats (SLAC/SD, 14-16 weeks old) once per day (at 8 am) for 6 weeks.
(§2) The blood glucose levels were measured once every 3 days at 4:30 pm (no fasting) from the third week to the sixth week as shown in Table 10a and 10b. […] Moreover, the blood glucose levels of the rats stayed at normal level (6-9 mmol/L, no fasting) after the treatment was stopped for 40 days.

Data set [2] concerns GK rats (SLAC/GK, type 2 diabetes). Description: Anti-diabetes (type II) activity of HPCs of NSAIAs in GK rats. Type of data set: in vivo. The following applies: 30 mg/kg transdermally once per day, no fasting. As for the experimental part: as §1, §2
The subject of data set [3] is human myeloma cell line implanted into mice. Briefly: Survival of mice with multiple myeloma (Example 110, Study B). Type of data set: in vivo. The following applies: n=5. As for the experimental part: Study B: For evaluation of antitumor activity, a human myeloma cell line derived from the ascites of a patient with multiple myeloma was implanted into mice. The experiment was carried out on 17 groups of mice. Control group (A, orally), chlorambucil (group B1: 1 mg/kg, orally, group B2, 3 mg/kg, orally, group B3:1 mg/kg, transdermally, and group B4: 3 mg/kg, transdermally), melphalan (group C1: 1 mg/kg, orally, group C2, 3 mg/kg, orally, group C3:1 mg/kg, transdermally, and group C4: 3 mg/kg, transdermally), N,N-diethylaminoethyl 4-[bis(2-chloroethyl)amino]benzenebutyrate.HBr (the HPC of chlorambucil (group D1: 1 mg/kg, orally, group D2, 3 mg/kg, orally, group D3:1 mg/kg, transdermally, and group D4: 3 mg/kg, transdermally), and 4-[bis(2-chloroethyl)amino]-N-acetyl-L-phenylalanine N,N-diethylaminoethyl ester hydrobromide (the HPC of melphalan) (group E1: 1 mg/kg, orally, group E2, 3 mg/kg, orally, group E3:1 mg/kg, transdermally, and group E4: 3 mg/kg, transdermally).

Data set [4] has the same test system. Description: Survival and weight loss of myeloma mice (Example 111). Type of data set: in vivo. The following applies: orally; for Weight Loss: day 21; for Life Elongation Rate / None Disease Rate / Survival Period: n=7. From the text: A human myeloma cell line derived from the ascites of a patient with multiple myeloma was implanted into mice. The mice was divided into 11 groups: control group (A, orally), melphalan (B1 and B2, orally), chlorambucil (C1 and C2, orally), N,N-diethylaminoethyl 4-[bis(2-chloroethyl)amino]benzenebutyrate.HBr (D1 and D2, transdermally), 4-[bis(2-chloroethyl)amino]-N-acetyl-L-phenylalanine N,N-diethylaminoethyl ester hydrobromide (E1 and E2, transdermally in 5% aqueous solution), and diethylaminoethyl 4-[bis(2-methylsulfonylethyl)amino]benzenebutyrate.HCl (F1 and F2, transdermally in 5% aqueous solution). The body weight loss of mice was determined on day 21.

Data set [5] has as its system Human Gastric Cancer HGC-27 cell. Description: HGC-27 cell proliferation, MTT assay. Type of data set: cell-based. The conditions noted are these: Homo sapiens, HGC-27, 72 hours, read-out: HGC-27 cell growth inhibition rate. On the procedure:
The inhibition of cellular proliferation was measured by the modified dimethyl thiazolyl diphenyl tetrazolium salt (MTT) [3-(4,5-dimethylthiazol-2-yl)-2,5-diphenyltetrazolium bromide] assay, based on the ability of live cells to converting thiazolyl blue to dark blue formazan. Approximately 3500 cells of HGC-27 (in 100 μl culture solution) were seeded into 96-well culture plates and were cultured for 16 hours at 37° C. Different concentration solution (100 μl) of Taxol (positive control), chlorambucil, or N,N-diethylaminoethyl 4-[bis(2-chloroethyl)amino]benzenebutyrate.HCl salt (HPC of chlorambucil) were added and incubation continued for 72 hours at 37° C. Then MTT were added and incubation continued at 37° C. for 4 h, and 100 μl DMSO was pipetted to solubilize the formazan product for 30 min at room temperature. The absorbency at 570 nm was measured using Bio-Rad micro-plate reader […].
In general terms: Tetrazolium dyes change colour on reduction, which living cells bring about.

A word on the inhibition: it is the share of the control response that was lost under treatment.

As to `CC(=O)Nc1ccc(OC(=O)c2ccccc2OC(=O)CCCN(C)C)cc1.Cl` [P-6, 4-acetamidophenyl salicylyldimethylaminobutyrate.HCl], in data set [1], the “blood glucose, Baseline” value is 18.9 ± 4.3 mmol/L and the “blood glucose, Average” value was determined as 9.5 ± 2.1 mmol/L. Further, in the data set with SLAC/DB/DB obese mice, the “Cholesterol (total), Day 1” value is 7.0 ± 0.4 mmol/L; the “Cholesterol (total), Week 5” value amounted to 4.9 ± 0.5 mmol/L; the “Triglycerides, Day 1” value is listed as 4.4 ± 0.5 mmol/L; the “Triglycerides, Week 5” value turned out to be 2.5 ± 0.3 mmol/L. Also, in the data set on SLAC/DB/DB obese mice, the “blood glucose, Day 1” value was 14.2 ± 2.0 mmol/L and the “blood glucose, Week 5” value came out at 9.5 ± 2.8 mmol/L. In addition, in the data set with normal SD rats (SLAC/SD), the “blood glucose, Average (Week 2-5)” value turned out to be 5.8 ± 1.1 mmol/L and the “blood glucose, Day 1” value stood at 5.7 ± 1.3 mmol/L. Also, in data set [2], the “blood glucose, Average (Week 2-5)” value is on record as 9.2 ± 2.7 mmol/L and the “blood glucose, Day 1” value is given as 16.8 ± 3.0 mmol/L.

With `CC(=O)Oc1ccc(-c2ccc(F)cc2F)cc1C(=O)O.CCN(CC)CCOC(=O)c1cc(-c2ccc(F)cc2F)ccc1OC(C)=O` [P-8, diethylaminoethyl 5-(2,4-difluorophenyl)acetylsalicylate.5-(2,4-difluorophenyl)acetylsalicylic acid salt], in data set [1], the “blood glucose, Baseline” value was 19.4 ± 3.1 mmol/L and the “blood glucose, Average” value is given as 9.7 ± 1.4 mmol/L. Also, in the data set with SLAC/DB/DB obese mice, the “Cholesterol (total), Day 1” value worked out at 6.8 ± 0.4 mmol/L; the “Cholesterol (total), Week 5” value worked out at 5.0 ± 0.2 mmol/L; the “Triglycerides, Day 1” value came to 4.4 ± 0.4 mmol/L; the “Triglycerides, Week 5” value worked out at 2.2 ± 0.4 mmol/L. In the data set with SLAC/DB/DB obese mice, the “blood glucose, Day 1” value is on record as 14.5 ± 2.7 mmol/L and the “blood glucose, Week 5” value is listed as 8.4 ± 2.1 mmol/L. In the data set with normal SD rats (SLAC/SD), the “blood glucose, Average (Week 2-5)” value is 5.7 ± 1.2 mmol/L and the “blood glucose, Day 1” value amounted to 5.6 ± 1.5 mmol/L. In data set [2], the “blood glucose, Average (Week 2-5)” value is 8.3 ± 2.1 mmol/L and the “blood glucose, Day 1” value is recorded as 16.9 ± 2.8 mmol/L.

As for `CCN(CC)CCOC(=O)c1ccccc1OC(=O)c1ccccc1O.Cl` [P-9, diethylaminoethyl salicylsalicylate.HCl salt], in data set [1], the “blood glucose, Baseline” value amounted to 16.5 ± 3.6 mmol/L and the “blood glucose, Average” value stood at 8.4 ± 1.9 mmol/L. Moreover, in the data set on SLAC/DB/DB obese mice, the “Cholesterol (total), Day 1” value came out at 7.7 ± 0.5 mmol/L; the “Cholesterol (total), Week 5” value was determined as 4.9 ± 0.5 mmol/L; the “Triglycerides, Day 1” value was 4.1 ± 0.4 mmol/L; the “Triglycerides, Week 5” value is 2.1 ± 0.3 mmol/L. Besides, in the data set on SLAC/DB/DB obese mice, the “blood glucose, Day 1” value stood at 14.1 ± 2.5 mmol/L and the “blood glucose, Week 5” value came to 8.7 ± 2.3 mmol/L. In the data set with normal SD rats (SLAC/SD), the “blood glucose, Average (Week 2-5)” value was determined as 5.6 ± 1.2 mmol/L and the “blood glucose, Day 1” value worked out at 5.5 ± 1.3 mmol/L. In data set [2], the “blood glucose, Average (Week 2-5)” value worked out at 9.4 ± 2.7 mmol/L and the “blood glucose, Day 1” value came to 16.4 ± 2.3 mmol/L.

On to `CC(=O)O.CCN(CC)CCOC(=O)c1ccccc1O` [P-10, diethylaminoethyl salicylate.AcOH], for which, in data set [1], the “blood glucose, Baseline” value amounted to 18.8 ± 3.4 mmol/L and the “blood glucose, Average” value came out at 8.6 ± 1.8 mmol/L. Also, in the data set on SLAC/DB/DB obese mice, the “Cholesterol (total), Day 1” value came to 6.8 ± 0.4 mmol/L; the “Cholesterol (total), Week 5” value was found to be 4.7 ± 0.5 mmol/L; the “Triglycerides, Day 1” value was 4.8 ± 0.9 mmol/L; the “Triglycerides, Week 5” value amounted to 2.3 ± 0.3 mmol/L. Besides, in the data set on SLAC/DB/DB obese mice, the “blood glucose, Day 1” value amounted to 15.1 ± 3.7 mmol/L and the “blood glucose, Week 5” value came out at 9.2 ± 2.3 mmol/L. In the data set on normal SD rats (SLAC/SD), the “blood glucose, Average (Week 2-5)” value stood at 5.7 ± 1.3 mmol/L and the “blood glucose, Day 1” value was determined as 5.8 ± 1.2 mmol/L. In data set [2], the “blood glucose, Average (Week 2-5)” value was 9.1 ± 2.2 mmol/L and the “blood glucose, Day 1” value is recorded as 16.7 ± 3.2 mmol/L.

For the molecule `O=C(O)CCCc1ccc(N(CCCl)CCCl)cc1` [chlorambucil, reference compound], the “Life Elongation Rate” value in data set [3] (1 mg/kg per day, orally) came out at 107%; in data set [3] (1 mg/kg per day, transdermally), 99%; in data set [3] (3 mg/kg per day, orally), 151%; in data set [3] (3 mg/kg per day, transdermally) it was 98%; in data set [4] (1.5 mg/kg per day), 126%; in data set [4] (3 mg/kg per day) it was 200%. Besides, the “Survival Period” value in data set [3] (1 mg/kg per day, orally) amounted to 48.7 ± 5.3 days; in data set [3] (1 mg/kg per day, transdermally), 46.1 ± 3.6 days; in data set [3] (3 mg/kg per day, orally) it was 68.5 ± 4.2 days; in data set [3] (3 mg/kg per day, transdermally), 44.6 ± 3.6 days; in data set [4] (1.5 mg/kg per day) it was 54.8 ± 5.5 days; in data set [4] (3 mg/kg per day) it was 87.2 ± 6.9 days. Moreover, the “Weight Loss” value in data set [4] (1.5 mg/kg per day) was 10%; in data set [4] (3 mg/kg per day), 17%. In addition, the “None Disease Rate” value in data set [4] (1.5 mg/kg per day) is given as 2/7; in data set [4] (3 mg/kg per day), 3/7. Besides, in data set [5] (0.5 μM), the inhibition at 0.5 µM was found to be 0.3%. Besides, the inhibition at 2 µM in data set [5] (2.0 μM) amounted to 1.6%. Besides, in data set [5] (5.0 μM), the inhibition at 5 µM amounted to 12.5%. Further, the inhibition at 25 µM in data set [5] (25 μM) turned out to be 31.5%. Besides, the inhibition at 50 µM in data set [5] (50 μM) was 39.4%. Besides, the inhibition at 75 µM in data set [5] (75 μM) is 41.5%. The inhibition at 100 µM in data set [5] (100 μM) turned out to be 53.1%. For the same molecule, the inhibition at 200 µM in data set [5] (200 μM) worked out at 62.1%. Moreover, in data set [5] (500 μM), the inhibition at 500 µM was 81%.
